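Test compounds were applied to cells in 96-well plates for 48 hours at 5 doses. GI50 = concentration required for 50% inhibition of growth.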 Calls of active or inactive are those of the source. Rule as the data show it: active = GI50 up to about 1.1 µM and inactive = higher.
What was measured:
Assay in all cases: DTP human tumour cell line panel, 48 h
NCI-H226 = tested on: NCI-H226
SNB-19 = tested on: SNB-19
SW-620 = tested on: SW-620
OVCAR-4 = tested on: OVCAR-4
HCC 2998 = tested on: HCC 2998
HOP-92 = tested on: HOP-92
HL-60 = tested on: HL-60
SK-MEL-5 = tested on: SK-MEL-5
NCI-H23 = tested on: NCI-H23
LXFL 529 = tested on: LXFL 529
RXF 631 = tested on: RXF 631
SF-539 = tested on: SF-539
RPMI-8226 = tested on: RPMI-8226
KM-20L2 = tested on: KM-20L2
LOX IMVI = tested on: LOX IMVI
TK-10 = tested on: TK-10
Malme-3M = tested on: Malme-3M
OVCAR-8 = tested on: OVCAR-8
A549 = tested on: A549
UACC-62 = tested on: UACC-62
SK-MEL-28 = tested on: SK-MEL-28
OVCAR-5 = tested on: OVCAR-5
SNB-78 = tested on: SNB-78
A498 = tested on: A498
HCT-15 = tested on: HCT-15
SR = tested on: SR
DMS-273 = tested on: DMS-273
SK-OV-3 = tested on: SK-OV-3
EKVX = tested on: EKVX
SN12C = tested on: SN12C
HOP-62 = tested on: HOP-62
MOLT-4 = tested on: MOLT-4
HT-29 = tested on: HT-29
UO-31 = tested on: UO-31
HCT-116 = tested on: HCT-116
KM12 = tested on: KM12
OVCAR-3 = tested on: OVCAR-3
DLD-1 = tested on: DLD-1
SF-295 = tested on: SF-295
U-251 = tested on: U-251
CAKI-1 = tested on: CAKI-1
K562 = tested on: K562
HOP-18 = tested on: HOP-18
786-0 = tested on: 786-0
SNB-75 = tested on: SNB-75
DMS-114 = tested on: DMS-114
CCRF-CEM = tested on: CCRF-CEM
IGROV-1 = tested on: IGROV-1
SF-268 = tested on: SF-268
NCI-H460 = tested on: NCI-H460
RXF 393 = tested on: RXF 393
ACHN = tested on: ACHN
XF498 = tested on: XF498
M14 = tested on: M14
COLO 205 = tested on: COLO 205
UACC-257 = tested on: UACC-257

Compound: O=C(O)CCSC(=O)Nc1ccc(/N=N/c2ccccc2)cc1
- GI50 (NCI-H226): > 100 µM (inactive)
- GI50 (SNB-19): > 100 µM (inactive)
- GI50 (SW-620): > 100 µM (inactive)
- GI50 (OVCAR-4): 95.1 µM (inactive)
- GI50 (HCC 2998): > 100 µM (inactive)
- GI50 (HOP-92): > 100 µM (inactive)
- GI50 (HL-60): 36.5 µM (inactive)
- GI50 (SK-MEL-5): > 100 µM (inactive)
- GI50 (NCI-H23): > 100 µM (inactive)
- GI50 (LXFL 529): 61.1 µM (inactive)
- GI50 (RXF 631): > 100 µM (inactive)
- GI50 (SF-539): > 100 µM (inactive)
- GI50 (RPMI-8226): > 100 µM (inactive)
- GI50 (KM-20L2): > 100 µM (inactive)
- GI50 (LOX IMVI): > 100 µM (inactive)
- GI50 (TK-10): > 100 µM (inactive)
- GI50 (Malme-3M): > 100 µM (inactive)
- GI50 (OVCAR-8): 61.1 µM (inactive)
- GI50 (A549): > 100 µM (inactive)
- GI50 (UACC-62): 59.4 µM (inactive)
- GI50 (SK-MEL-28): > 100 µM (inactive)
- GI50 (OVCAR-5): > 100 µM (inactive)
- GI50 (SNB-78): > 100 µM (inactive)
- GI50 (A498): 69.5 µM (inactive)
- GI50 (HCT-15): > 100 µM
- GI50 (SR): 37.9 µM (inactive)
- GI50 (DMS-273): > 100 µM (inactive)
- GI50 (SK-OV-3): > 100 µM (inactive)
- GI50 (EKVX): 74 µM (inactive)
- GI50 (SN12C): > 100 µM (inactive)
- GI50 (HOP-62): > 100 µM (inactive)
- GI50 (MOLT-4): 30.2 µM (inactive)
- GI50 (HT-29): > 100 µM (inactive)
- GI50 (UO-31): 55.3 µM (inactive)
- GI50 (HCT-116): > 100 µM (inactive)
- GI50 (KM12): > 100 µM (inactive)
- GI50 (OVCAR-3): > 100 µM (inactive)
- GI50 (DLD-1): > 100 µM (inactive)
- GI50 (SF-295): 64 µM (inactive)
- GI50 (U-251): 64.6 µM (inactive)
- GI50 (CAKI-1): > 100 µM (inactive)
- GI50 (K562): 80.5 µM (inactive)
- GI50 (HOP-18): > 100 µM (inactive)
- GI50 (786-0): > 100 µM (inactive)
- GI50 (SNB-75): > 100 µM (inactive)
- GI50 (DMS-114): 61.8 µM (inactive)
- GI50 (CCRF-CEM): 62.5 µM (inactive)
- GI50 (IGROV-1): 92.9 µM (inactive)
- GI50 (SF-268): > 100 µM (inactive)
- GI50 (NCI-H460): > 100 µM (inactive)
- GI50 (RXF 393): > 100 µM (inactive)
- GI50 (ACHN): 43.6 µM (inactive)
- GI50 (XF498): > 100 µM (inactive)
- GI50 (M14): > 100 µM (inactive)
- GI50 (COLO 205): > 100 µM (inactive)
- GI50 (UACC-257): > 100 µM (inactive)
